Source: paper PMC6176332, “Studies on the Interaction between Three Small Flavonoid Molecules and Bovine Lactoferrin” (BioMed Research International, 2018)

Target: T1, bovine lactoferrin (BLF) (Bos taurus, UniProt P24627)
T1 construct: gene LTF
Assay: intrinsic fluorescence quenching (excitation […] nm), double-log plot
Assay type: binding
Conditions: 0.05 M phosphate buffer, pH 7.4, 300 K, about 1% ethanol; n = 1.076; in 1/M

T1 sequence (P24627 20-708): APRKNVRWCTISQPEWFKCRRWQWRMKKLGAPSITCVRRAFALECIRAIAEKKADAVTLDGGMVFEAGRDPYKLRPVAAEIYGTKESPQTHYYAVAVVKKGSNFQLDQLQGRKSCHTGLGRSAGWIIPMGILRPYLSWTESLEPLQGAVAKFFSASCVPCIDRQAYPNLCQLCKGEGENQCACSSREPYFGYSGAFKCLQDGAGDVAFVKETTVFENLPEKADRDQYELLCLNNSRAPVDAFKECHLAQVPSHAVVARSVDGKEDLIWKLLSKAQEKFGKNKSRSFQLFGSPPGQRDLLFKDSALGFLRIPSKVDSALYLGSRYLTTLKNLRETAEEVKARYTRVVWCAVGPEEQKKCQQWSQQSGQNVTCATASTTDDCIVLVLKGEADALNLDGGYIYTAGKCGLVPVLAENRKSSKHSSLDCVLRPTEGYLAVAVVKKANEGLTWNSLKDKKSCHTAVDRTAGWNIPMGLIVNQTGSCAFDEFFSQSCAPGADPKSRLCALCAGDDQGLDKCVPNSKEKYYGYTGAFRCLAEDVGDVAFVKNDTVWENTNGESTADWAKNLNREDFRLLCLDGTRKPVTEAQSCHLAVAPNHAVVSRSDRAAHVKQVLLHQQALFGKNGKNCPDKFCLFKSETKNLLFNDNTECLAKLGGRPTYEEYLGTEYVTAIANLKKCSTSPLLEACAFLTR

With O=C1C[C@@H](c2ccc(O)cc2)Oc2cc(O)cc(O)c21 [Naringenin] the “Ka (×10^4M^-1)” value was 3.05 ×10^4.
